Consider six compounds from patent publication US20110034466A1, “NOVEL FIVE-MEMBERED RING COMPOUND” (priority 2008, published 2011).

The test system of one series is rat lung membrane SMBS. In words: Receptor-binding assessment test using rat lung membranes ([125I]-iodocyanopindolol ligand binding assay). The settings on record: 1 μM test compound; ratio of inhibiting specific binding of [125I]-iodocyanopindolol to rat lung membrane SMBS. The method, then:
Receptor-Binding Assessment Test of Compounds Using Rat Lung Membranes
The assessment test was carried out according to the method of Sugasawa, T. et al., J. Biol. Chem., 272, 21244-21252 (1997).
Preparation of Rat Lung Membranes
Lung taken out from SD male rat (7-week old under test, Charles River Laboratories Japan, Inc.) was removed trachea and blood vessels to shred and washed with iced tris-saline buffer (10 mM tris hydrochloric acid-154 mM sodium chloride, pH7.4). The resultant was homogenized by Hiscotron with ice-cold tris-saline buffer containing a homogenization buffer (1 mM ethylenediaminetetraacetic acid (EDTA), 1 mM 4-(2-aminoethyl)benzenesulfonyl fluoride (AEBSF), 5 μg/ml aprotinin, 5 μg/ml leupeptine) (maximum rate: 1 minute). The supernatant after low-speed centrifugation (1500×g, 20 minutes, 4° C.) was ultracentrifuged (100000×g, 20 minutes, 4° C.), and the pellet was suspended in tris-saline buffer to store at −80° C. The protein concentrations were determined by Bio-Rad Protein Assay Kit using bovine serum albumin (BSA) as a standard.
To each well in protein-nonabsorptive round-bottom 96-well assay plate (commercially available from Iwaki Glass Co., Ltd.) were added tris-saline buffer (200 μl) containing 1 nM [^125I]-iodocyanopindolol (commercially available from Amersham plc), 10 μM serotonine, 20 μm dl-propranolol, 10 μM phentolamine, 1.1 mM ascorbic acid and 100 μg lung membrane, and the mixture was pipetted to combine and then incubated at 37° C. for 30 minutes. The test compounds were dissolved in 100% dimethyl sulfoxide solution, and thereto was added 2 μl (final DMSO concentration: 1%). In order to calculate nonspecific binding amounts, to the mixture was added L-threo-3-(3,4-dihydroxyphenyl)-N-[3-(4-fluorophenyl)propyl]serine pyrrolidine amide at 100 μM of the final concentration as an alternative to the test compounds. During this time, 100 μl of 0.3% polyethyleneimine (PEI)/tris-saline buffer was added to MultiScreen plate (96-well B glass fiber, Millipore Cat. No. MAFB NOB10), and incubated for over 30 minutes. The resultant was filtered with aspiration (aspiration by the addition of 200 μl iced tris-saline buffer) to wash, and the reaction solutions on 96-well assay plate were filtered with aspiration to wash four times on MultiScreen plate. B glass fiber filter paper at the bottom of MultiScreen plate was punched out, and γ-ray doses of [^125I]-iodocyanopindolol trapped on the filter paper were determined as binding amounts. The binding amounts in the presence of DMSO (final concentration: 1%) were total binding amounts, and the binding amounts in the presence of 100 μM L-threo-3-(3,4-dihydroxyphenyl)-N-[3-(4-fluorophenyl)propyl]serine pyrrolidine amide were nonspecific binding amounts. The values subtracted the nonspecific binding amounts from the total binding amounts were the specific binding amounts. The binding activity of a compound was calculated according to the following formula, which was shown in the ratio of inhibiting the specific binding of [^125I]-iodocyanopindolol to rat lung membrane SMBS by the test compound.

For series [1], the system named is Corticosterone generation. In words: Assessment test of steroid hormone synthesis inhibition (Corticosterone generation in rat adrenal gland cells). Format: cell-based. Conditions: 10 μM test article, rat adrenal cells with cAMP, 2 hours, read-out: Steroid Synthesis Inhibition Rate (%) (10 μM). From the text:
Assessment Test of Steroid Hormone Synthesis Inhibition
• Cell Strainer (BD Falcon®) • Cell Titer-Glo® (Promega) • Collagenase from Clostridium histolyticum (Sigma-Aldrich) • Corticosterone EIA kit (Cayman) • Dimethylsulfoxide (referred to as DMSO hereinafter) (nacalai tesque) • D-MEM (GIBCO) • DNase I (Invitrogen) • Fetal Bovine Serums (referred to as FBS hereinafter) (Bioflud) • Multiple well plates for adhesive cell culture, 96 wells (IWAKI) • N^6,2′-O-Dibutyryladenosine 3′,5′-cyclic monophosphate sodium salt (referred to as cAMP hereinafter) (Sigma) • Penicillin Streptomycin Mixed Solution (nacalai tesque)
Control examples 1 to 4: Control example 1 was Example 350 of Patent Document 2. Control examples 2 to 4 were synthesized according to Patent Document 2.
Adrenal glands were taken out from rats, and removed excess connective tissues, adiposes and membranes in D-MEM. The adrenal glands were transferred to polytubes, and quickly segmentalized with scissors. Thereto was added D-MEM containing 1 mg/mL collagenase and 0.25 μL DNase 1, and then the mixture was shaken at 37° C. for 10 minutes in 80 times/minute. Then, the mixture was pipetted by 1 mL truncated pipette tip, and shaken again under the same condition. After 10 minutes, the mixture was pipetted again by 1 mL pipette tip, and the cell suspension was filtered through metal mesh. The filtrate was centrifuged at 4° C. for 5 minutes in 500 g. The supernatant was removed, and thereto was added a mixed solution of 0.16 M NH4Cl and 0.17 M Tris-HCl in 3 mL. The mixture was let stand on ice for 5 minutes, and then centrifuged under the same condition. Then, the supernatant was removed and then thereto was added D-MEM. The cell suspension was prepared and centrifuged under the same condition. Again, the supernatant was removed and then thereto was added D-MEM to give a cell suspension. The cell suspension was filtered by Cell Strainer (BD Falcon®). The filtrate was centrifuged under the same condition. After the completion of the centrifugation, the supernatant was removed, and thereto was added D-MEM containing 1% Penicillin Streptomycin Mixed Solution and 10% FBS. The mixture was seeded in Multiple well plate for adhesive cell culture, 96 wells (IWAKI) in 10000 cells/well, and incubated at 37° C. overnight in CO2 incubator.
Test article concentrations were prepared in DMSO to 2000 μM, and D-MEM containing 20 μM test article in D-MEM was prepared.
Cell-seeded plate was incubated overnight, and then the medium was removed and thereto was added D-MEM containing 20 μM test article in 50 μL/well. Then, to the mixture was promptly added D-MEM containing 20 μM cAMP in 50 μL/well so that the final concentration of the test article was 10 μM. After the addition of 2 types of D-MEM, the mixture was incubated at 37° C. for 2 hours in CO2 incubator. After 2 hours, the supernatant (50 μL) of the medium was collected. For cells, the cell toxicity of the test article was assessed according to a conventional method using Cell Titer-Glo® (Promega). For the collected supernatant, the Corticosterone concentration in the supernatant was determined according to a conventional method using Corticosterone EIA kit (Cayman).
The inhibition rate of 10 μM test article to Corticosterone generation was calculated according to the following formula confirming that the cell toxicity by the test article was not recognized.

For series [2], the system named is Guinea pig late asthma model. In words: Guinea pig late asthma model (ovalbumin sensitized, respiratory function sRaw/TV). Format: in vivo. Conditions: 3 mg/kg orally one hour before antigen challenge. As to the method: Assessment of Compounds in Guinea Pig Late Asthma Model
The assessment was carried out using a compound obtained in Example 52.
Hartley male guinea pigs (commercially available from Japan SLC, Inc.) were pre-bred about 1 week after arrival, and then exposed by inhalation to 2% (w/v) ovalbumin (OA) saline in a plastic box (4 guniea pigs/box) for 5 minutes using a ultrasonic nebulizer (OMRON NE-U12, condition: maximum nebulizing amounts, maximum air volume), and sensitized (day 0). The same operation was carried out on day 7. On day 14 or 15, each guinea pig was administered 2% OA by inhalation for 5 minutes to initiate a response (challenge). […]
A determination and analysis of respiratory function were carried out according to the method of Penny A. Hutson et al. Am Rev Respir Dis 1988 137, 548-557. The respiratory function was determined before the antigen challenge (before drug administration) and 5 minutes and 1, 2, 3, 4, 5, 6, 7 and 8 hours after the antigen challenge, and wave profiles were imported using MacLab Chart v3.4 (AD Instruments) and analyzed later. […] The sRaw/TV values subtracting the former values were plotted against measured times, and each area under the curve (AUC4-8 hr) of each animal was calculated to compare each other in the range of 4 to 8 hours after the antigen challenge. […]

Each structure is given as a SMILES string.

On to `CNC(=O)NCCn1c(-c2ccc(CN3CCOCC3)cc2C)cs/c1=N\c1ccc(F)c(C)c1` [Example 18, N-{2-[(2Z)-2-[(4-Fluoro-3-methylphenyl)imino]-4-[2-methyl-4-(morpholin-4-ylmethyl)phenyl]-1,3-thiazol-3(2H)-yl]ethyl}-N′-methylurea], for which the “Binding Activity (%) (1 μM)” value in the series on rat lung membrane SMBS is 88%. Also, the inhibition at 10 µM in series [1] stood at 28%.

`CCNC(=O)NCCn1c(-c2ccc(C(=O)N3CCOCC3)cc2)cs/c1=N\c1cccc(Cl)c1` [Example 59]: the melting point lay in the range of 191 to 198 °C. Also, the “Binding Activity (%) (1 μM)” value in the series on rat lung membrane SMBS is listed as 66%. The inhibition at 10 µM in series [1] came to 7%.

In the case of `CNC(=O)NCCn1c(-c2ccc(C(=O)N3CCOCC3)cc2)cs/c1=N\c1cccc(F)c1` [Example 52, N-{2-[(2Z)-2-[(3-Fluorophenyl)imino]-4-[4-(morpholin-4-ylcarbonyl)phenyl]-1,3-thiazol-3(2H)-yl]ethyl}-N′-methylurea], the “Binding Activity (%) (1 μM)” value with rat lung membrane SMBS came to 59%. Besides, in series [2] (4 to 8 hours after antigen challenge), the “AUC4-8 hr ((sRaw/TV) · h)” value is recorded as 0.427 (sRaw/TV) · h. For the same compound, in series [2] (AUC4-8 hr versus control group, p<0.01 Dunnett's test), the “Improvement Rate (%)” value came to 54%. Moreover, the inhibition at 10 µM in series [1] stood at 0%.

For `CCNC(=O)c1ccc(-c2cs/c(=N\c3ccc(F)cc3)n2CCNC(=O)NC)cc1` [Example 61], the melting point lay within 172 to 178 °C. Also, the “Binding Activity (%) (1 μM)” value in the series with rat lung membrane SMBS came to 62%. For the same compound, the inhibition at 10 µM in series [1] amounted to 6%.

Regarding `CNC(=O)NCCn1c(-c2ccc(CN3CCOCC3)c(OC)c2)cs/c1=N\c1ccc(F)c(C)c1` [Example 21, N-{2-[(2Z)-2-[(4-Fluoro-3-methylphenyl)imino]-4-[3-methoxy-4-(morpholin-4-ylmethyl)phenyl]-1,3-thiazol-3(2H)-yl]ethyl}-N′-methylurea], in the series on rat lung membrane SMBS, the “Binding Activity (%) (1 μM)” value was determined as 82%. For the same compound, the inhibition at 10 µM in series [1] amounted to 8%.

`CCNC(=O)c1ccc(-c2cs/c(=N\c3ccc(F)c(F)c3)n2CCNC(=O)NC)cc1` [Example 62]: the melting point was 180 to 188 °C. Also, the “Binding Activity (%) (1 μM)” value in the series on rat lung membrane SMBS was determined as 65%. In addition, in series [1], the inhibition at 10 µM amounted to 2%.

As usually defined, the inhibition is the percentage by which the read-out fell short of the control. For orientation: melting point means the temperature of the solid-liquid transition.
